This note sets out measurements from patent US11072591B2, “Tetrazole compounds and their use in the treatment of tuberculosis” (GLAXOSMITHKLINE INTELLECTUAL PROPERTY DEVELOPMENT LIMITED, priority 2017, dated 2021).

For this assay, the system named is M. tuberculosis H37Rv. As to the kind of experiment: Mycobacterium tuberculosis H37Rv Inhibition Assay (Whole Cell Assay), MIC. It is filed as cell-based.
Where [1] appears, read: 144 h, M. tuberculosis H37Rv, Middlebrook 7H9 + ADC, 37° C. six days, resazurin readout, read-out: MIC_H37Rv.
Where [2] appears, read: M. tuberculosis H37Rv whole cell assay, value from repeated testing of the compound, read-out: MIC.

Values after ≈ are worked out from the molar mass of the structure shown. Read-outs that look alike come from different tables or passages of the source. A value given as a limit tells only on which side of the number the result lay.

Turning to `Cc1cc(S(=O)(=O)NCCO)ccc1-c1nnn(Cc2ccc(F)cn2)n1` [Example 73, 4-(2-((5-fluoropyridin-2-yl)methyl)-2H-tetrazol-5-yl)-N-(2-hydroxyethyl)-3-methylbenzenesulfonamide], the MIC under setting [1] was less than 0.1 µM.

For the compound `Cc1ccc(Cn2nnc(-c3ccc(S(=O)(=O)NC[C@@H](C)O)cc3)n2)nc1` [Example 27], the MIC under setting [1] lay in the range of 10 to 25 µM.

Consider `Cc1cc(Cn2nnc(-c3ccc(S(=O)(=O)NCCO)cc3)n2)ccn1` [Example 34], for which the MIC under setting [1] lay within 1 to 5 µM.

Regarding `N#Cc1ccc(Cn2nnc(-c3ccc(S(=O)(=O)NCCO)cc3)n2)nc1` [Example 20], the MIC under setting [1] was less than 0.1 µM.

For the compound `O=S(=O)(NCCO)c1ccc(-c2nnn(Cc3ccncn3)n2)cc1` [Example 2, N-(2-hydroxyethyl)-4-(2-(pyrimidin-4-ylmethyl)-2H-tetrazol-5-yl)benzenesulfonamide], under setting [1], the MIC was in the range of 1 to 5 µM.

With `COc1ccc(Cn2nnc(-c3ccc(S(=O)(=O)NC[C@@H](C)O)cc3)n2)cc1` [Example 28], the MIC under setting [1] lay in the range of 1 to 5 µM.

`O=S(=O)(NCCO)c1ccc(-c2nnn(Cc3ccc(OC(F)(F)F)cc3)n2)cc1` [Example 97]: the MIC under setting [1] was in the range of 1 to 5 µM.

With `Cc1nccc(Cn2nnc(-c3ccc(S(=O)(=O)NCCO)cc3)n2)n1` [Example 23], under setting [1], the MIC lay within 5 to 10 µM.

Take `O=S(=O)(NCCO)c1ccc(-c2nnn(Cc3ccc(C(F)F)cc3)n2)cc1` [Example 10]: under setting [1], the MIC is less than 0.1 µM.

Consider `O=S(=O)(NCCO)c1ccc(-c2nnn(CC3CCOCC3)n2)cc1` [Example 105, N-(2-hydroxyethyl)-4-(2-((tetrahydro-2H-pyran-4-yl)methyl)-2H-tetrazol-5-yl)benzenesulfonamide], for which the MIC under setting [1] lay in the range of 1 to 5 µM.

Consider `COc1cc(-c2nnn(Cc3ccncc3)n2)ccc1S(=O)(=O)NCC(N)=O` [Example 55], for which, under setting [1], the MIC was less than 0.1 µM.

Regarding `COc1ccc(Cn2cc(-c3ccc(S(=O)(=O)NCCO)cc3)nn2)cc1` [Example 63], under setting [1], the MIC is less than 0.1 µM.

For the compound `N#Cc1ccc(Cn2cc(-c3ccc(S(=O)(=O)NCCO)cc3)nn2)cc1` [Example 66], the MIC under setting [1] was less than 0.1 µM.

On to `Cc1cc(Cn2nnc(-c3ccc(S(=O)(=O)NCC(N)=O)cc3)n2)ccn1` [Example 42], for which the MIC under setting [1] was less than 0.1 µM.

`COc1ccc(Cn2nnc(-c3ccc(S(=O)(=O)NCCO)cc3)n2)cc1` [Example 6, N-(2-hydroxyethyl)-4-(2-(4-methoxybenzyl)-2H-tetrazol-5-yl)benzenesulfonamide]: under setting [1], the MIC was less than 0.1 µM.

With `Cc1cc(S(=O)(=O)NCCO)ccc1-c1nnn(CC2CCCCO2)n1` (single isomer, unassigned) [Example 74 Isomer 1, N-(2-hydroxyethyl)-3-methyl-4-(2-((tetrahydro-2H-pyran-2-yl)methyl)-2H-tetrazol-5-yl)benzenesulfonamide], the MIC under setting [1] lay within 5 to 10 µM.

With `NC(=O)CNS(=O)(=O)c1ccc(-c2cn(CC3CCC(F)(F)CC3)nn2)cc1` [Example 69], the MIC under setting [1] fell in the range of 1 to 5 µM.

Turning to `COc1cc(-c2nnn(C(C)c3ccc(F)cc3)n2)ccc1S(=O)(=O)NCC(N)=O` (single isomer, unassigned) [Example 115 Isomer 2, 2-(4-(2-(1-(4-fluorophenyl)ethyl)-2H-tetrazol-5-yl)-2-methoxyphenylsulfonamido)acetamide], the MIC under setting [2] was in the range of 0.45 to 1.25 µM (≈ 0.196 to 0.543 µg/mL).

For the compound `Cc1cccc(Cn2nnc(-c3ccc(S(=O)(=O)NCCO)cc3)n2)n1` [Example 22], the MIC under setting [1] lay in the range of 10 to 25 µM.

Consider `Cc1ccc(Cn2cc(-c3ccc(S(=O)(=O)NCCO)cc3)nn2)nc1` [Example 67], for which, under setting [1], the MIC fell in the range of 10 to 25 µM.

`O=S(=O)(NCCO)c1ccc(-c2cn(Cc3ccncc3)nn2)cc1` [Example 65]: under setting [1], the MIC is less than 0.1 µM.

With `N#CCNS(=O)(=O)c1ccc(-c2cn(Cc3ccncc3)nn2)cc1` [Example 60], the MIC under setting [1] is less than 0.1 µM.

`Cc1ccc(Cn2nnc(-c3ccc(S(=O)(=O)NCC(N)=O)cc3)n2)nc1` [Example 40]: the MIC under setting [1] was less than 0.1 µM.

Regarding `O=S(=O)(NCCO)c1ccc(-c2nnn(Cc3ccncc3)n2)cc1` [Example 33], under setting [1], the MIC was less than 0.1 µM.

`CNS(=O)(=O)c1ccc(-c2nnn(Cc3ccc(C#N)cc3)n2)cc1` [Example 108, 4-(2-(4-cyanobenzyl)-2H-tetrazol-5-yl)-N-methylbenzenesulfonamide]: the MIC under setting [1] fell in the range of 1 to 5 µM.

As for `O=S(=O)(NCCO)c1ccc(-c2nnn(CC3CCCCC3)n2)cc1F` [Example 79, 4-(2-(cyclohexylmethyl)-2H-tetrazol-5-yl)-2-fluoro-N-(2-hydroxyethyl)benzenesulfonamide], the MIC under setting [1] was less than 0.1 µM.

Consider `N#CCNS(=O)(=O)c1ccc(-c2nnn(Cc3cnccn3)n2)cc1` [Example 90, N-(cyanomethyl)-4-(2-(pyrazin-2-ylmethyl)-2H-tetrazol-5-yl)benzenesulfonamide], for which the MIC under setting [1] is less than 0.1 µM.

Turning to `CNS(=O)(=O)c1ccc(-c2nnn(Cc3ccc(F)cc3)n2)cc1` [Example 3, 4-(2-(4-fluorobenzyl)-2H-tetrazol-5-yl)-N-methylbenzenesulfonamide], under setting [1], the MIC lay in the range of 1 to 5 µM.

With `N#CCNS(=O)(=O)c1ccc(-c2nnn(CC3CCOCC3)n2)cc1` [Example 89, N-(cyanomethyl)-4-(2-((tetrahydro-2H-pyran-4-yl)methyl)-2H-tetrazol-5-yl)benzenesulfonamide], the MIC under setting [1] is less than 0.1 µM.

As to `Cc1cc(-c2nnn(Cc3ccc(F)cn3)n2)ccc1S(=O)(=O)NCCO` [Example 71, 4-(2-((5-fluoropyridin-2-yl)methyl)-2H-tetrazol-5-yl)-N-(2-hydroxyethyl)-2-methyl Benzenesulfonamide], under setting [1], the MIC was less than 0.1 µM.

For `O=S(=O)(NCCO)c1ccc(-c2nnn(Cc3ccc(F)cn3)n2)c(Cl)c1` [Example 81, 3-chloro-4-(2-((5-fluoropyridin-2-yl)methyl)-2H-tetrazol-5-yl)-N-(2-hydroxyethyl)benzenesulfonamide], the MIC under setting [1] is less than 0.1 µM.

As to `C[C@H](O)CNS(=O)(=O)c1ccc(-c2nnn(Cc3ccc(F)cc3)n2)cc1` [Example 14], under setting [1], the MIC is 1 to 5 µM.

For `O=S(=O)(NCCO)c1ccc(-c2nnn(Cc3ncc(F)cc3F)n2)cc1` [Example 21], the MIC under setting [1] lay in the range of 1 to 5 µM.

With `N#CCNS(=O)(=O)c1ccc(-c2cn(Cc3ccc(F)cn3)nn2)cc1` [Example 61], the MIC under setting [1] is less than 0.1 µM.

For `N#CCNS(=O)(=O)c1ccc(-c2nnn(Cc3ccncn3)n2)cc1` [Example 58], the MIC under setting [1] is less than 0.1 µM.

Turning to `C[C@@H](O)CNS(=O)(=O)c1ccc(-c2nnn(Cc3ccncc3)n2)cc1` [Example 12], the MIC under setting [1] is less than 0.1 µM.

For the compound `COc1ccc(Cn2nnc(-c3ccc(S(=O)(=O)NCC#N)cc3)n2)cn1` [Example 93, N-(cyanomethyl)-4-(2-((6-methoxypyridin-3-yl)methyl)-2H-tetrazol-5-yl)benzenesulfonamide], under setting [1], the MIC is less than 0.1 µM.

Regarding `O=S(=O)(NCCO)c1ccc(-c2nnn(CC3CCCOC3)n2)cc1` (stereo not drawn) [Example 104, N-(2-hydroxyethyl)-4-(2-((tetrahydro-2H-pyran-3-yl)methyl)-2H-tetrazol-5-yl)benzenesulfonamide], under setting [1], the MIC lay within 5 to 10 µM.

Consider `C[C@@H](O)CNS(=O)(=O)c1ccc(-c2nnn(CC3CCC(F)(F)CC3)n2)cc1` [Example 13], for which the MIC under setting [1] lay in the range of 10 to 25 µM.

On to `O=S(=O)(NC(CO)CO)c1ccc(-c2nnn(Cc3ccncc3)n2)cc1` [Example 16], for which the MIC under setting [1] lay within 5 to 10 µM.

As to `O=S(=O)(NCCO)c1ccc(-c2nnn(CC3CCCCC3)n2)cc1` [Example 100, 4-(2-(cyclohexylmethyl)-2H-tetrazol-5-yl)-N-(2-hydroxyethyl)benzenesulfonamide], the MIC under setting [1] was less than 0.1 µM.

On to `COc1cnc(Cn2nnc(-c3ccc(S(=O)(=O)NCC#N)cc3)n2)cn1` [Example 92, N-(cyanomethyl)-4-(2-((5-methoxypyrazin-2-yl)methyl)-2H-tetrazol-5-yl)benzenesulfonamide], for which the MIC under setting [1] was 1 to 5 µM.

On to `COC(=O)CNS(=O)(=O)c1ccc(-c2nnn(Cc3ccc(F)cc3)n2)cc1` [Example 43], for which the MIC under setting [1] was in the range of 1 to 5 µM.

`O=S(=O)(NCCO)c1ccc(-c2nnn(CC3CCC(F)(F)CC3)n2)cc1` [Example 11]: the MIC under setting [1] is less than 0.1 µM.

Regarding `C[C@@H](c1ccc(F)cn1)n1nnc(-c2ccc(S(=O)(=O)NCCO)cc2)n1` [Example 111 (S-isomer), (S)-4-(2-(1-(5-fluoropyridin-2-yl)ethyl)-2H-tetrazol-5-yl)-N-(2-hydroxyethyl)benzenesulfonamide], the MIC under setting [2] lay within 0.6 to 1.88 µM (≈ 0.235 to 0.736 µg/mL).

Take `Cc1cc(S(=O)(=O)NCCO)c(F)cc1-c1nnn(Cc2ccc(F)cn2)n1` [Example 110, 2-fluoro-4-(2-((5-fluoropyridin-2-yl)methyl)-2H-tetrazol-5-yl)-N-(2-hydroxyethyl)-5-methylbenzenesulfonamide]: under setting [1], the MIC is less than 0.1 µM.

Take `C[C@@H](O)CNS(=O)(=O)c1ccc(-c2nnn(Cc3ccc(F)cn3)n2)cc1` [Example 25]: the MIC runs as follows: under setting [1], less than 0.1 µM; under setting [2], 0.6 µM (≈ 0.235 µg/mL).

For the compound `COc1ccc(Cn2nnc(-c3ccc(S(=O)(=O)NCCO)c(OC)c3)n2)nc1` [Example 109, N-(2-hydroxyethyl)-2-methoxy-4-(2-((5-methoxypyridin-2-yl)methyl)-2H-tetrazol-5-yl)benzenesulfonamide], the MIC under setting [1] was 1 to 5 µM.

For `O=S(=O)(NC(CO)CO)c1ccc(-c2nnn(Cc3ccc(F)cc3)n2)cc1` [Example 15], under setting [1], the MIC was in the range of 5 to 10 µM.

As for `O=S(=O)(NCCO)c1ccc(-c2nnn(Cc3ccnnc3)n2)cc1` [Example 106, N-(2-hydroxyethyl)-4-(2-(pyridazin-4-ylmethyl)-2H-tetrazol-5-yl)benzenesulfonamide], the MIC under setting [1] is less than 0.1 µM.

Consider `COc1ccc(Cn2nnc(-c3ccc(S(=O)(=O)NC[C@@H](C)O)cc3)n2)nc1` [Example 26], for which, under setting [1], the MIC lay within 10 to 25 µM.

On to `N#CCNS(=O)(=O)c1ccc(-c2nnn(Cc3ccncc3)n2)cc1` [Example 56], for which, under setting [1], the MIC was less than 0.1 µM.

For the compound `COc1cc(-c2nnn(Cc3ccc(C#N)cc3)n2)ccc1S(=O)(=O)NCCO` [Example 49, 4-(2-(4-cyanobenzyl)-2H-tetrazol-5-yl)-N-(2-hydroxyethyl)-2-methoxybenzenesulfonamide], the MIC under setting [1] is less than 0.1 µM.
